Measurements from patent US10548318B2, “N-(tetrazol-5-yl)- and N-(triazol-5-yl)arylcarboxamide derivatives with herbicidal action” (Bayer CropScience Aktiengesellschaft, priority 2015, dated 2020).

How the values were obtained:
Assay type in all cases: in vivo
Stellaria media [1] = assay: Post-emergence herbicidal action against harmful plants; conditions: 504 h, application rate 80 g/ha, visual assessment after about 3 weeks vs untreated controls, read-out: herbicidal action in percent against Stellaria media
Protocol: (§1) Seeds of monocotyledonous and dicotyledonous weed and crop plants are laid out in sandy loam soil in wood-fiber pots, covered with soil and cultivated in a greenhouse under good growth conditions. 2 to 3 weeks after sowing, the test plants are treated at the one-leaf stage. The compounds of the invention, formulated in the form of wettable powders (WP) or as emulsion concentrates (EC), are then sprayed onto the green parts of the plants in the form of an aqueous suspension or emulsion at a water application rate equating to 600 to 800 I/ha, with addition of 0.2% wetting agent. After the test plants have been left to stand in the greenhouse under optimal growth conditions for about 3 weeks, the action of the preparations is assessed visually in comparison to untreated controls (herbicidal action in percent (%): 100% activity=the plants have died, 0% activity=like control plants). Here, for example, the compounds Nos. 1-384, 1-390, 3-384, 5-384, 19-384, 9-390, 21-384, 23-384, 28-390 and 32-384, at an application rate of 80 g/ha, each show an activity of at least 80% against Stellaria media and Veronica persica.

Veronica persica = assay: as above; conditions: 504 h, application rate 80 g/ha, visual assessment after about 3 weeks vs untreated controls, read-out: herbicidal action in percent against Veronica persica
Protocol: as §1

Stellaria media [2] = assay: Pre-emergence herbicidal action against harmful plants; conditions: 504 h, application rate 320 g/ha, visual scoring after 3 weeks vs untreated controls, read-out: herbicidal activity in percent against Stellaria media
Source text: (§2) Seeds of monocotyledonous and dicotyledonous weed plants and crop plants are laid out in wood-fiber pots in sandy loam and covered with soil. The compounds of the invention, formulated in the form of wettable powders (WP) or as emulsion concentrates (EC), are then applied to the surface of the covering soil in the form of an aqueous suspension or emulsion at a water application rate equating to 600 to 800 I/ha, with addition of 0.2% wetting agent. After the treatment, the pots are placed in a greenhouse and kept under good growth conditions for the trial plants. The damage to the test plants is scored visually after a test period of 3 weeks by comparison with untreated controls (herbicidal activity in percent (%): 100% activity=the plants have died, 0% activity=like control plants). Here, for example, the compounds Nos. 1-384, 1-390, 3-384, 5-384, 19-384, 9-390, 21-384, 23-384 and 28-390, at an application rate of 320 g/ha, each show an activity of at least 80% against Stellaria media and Amaranthus retroflexus.

Amaranthus retroflexus = assay: as above; conditions: 504 h, application rate 320 g/ha, visual scoring after 3 weeks vs untreated controls, read-out: herbicidal activity in percent against Amaranthus retroflexus
Source text: as §2

[3] = test system: Polygonum convolvulus (POLCO); assay: Comparative experiment in pre-emergence; conditions: dosage 320 g/ha
Source text: as §2
For comparative purposes, the herbicidal activity of some compounds according to the invention and the most structurally similar compounds known from the prior art were tested.

Compound	pest or weed control at 80 g/ha (Stellaria media [1]) [%]	pest or weed control at 80 g/ha (Veronica persica) [%]	pest or weed control at 320 g/ha (Stellaria media [2]) [%]	pest or weed control at 320 g/ha (Amaranthus retroflexus) [%]	Herbicidal activity against POLCO [3] [%]
CCOC(=O)OC(C)n1nnn(C)c1=NC(=O)c1ccc(C(F)(F)F)c(SC)c1Cl (stereo not shown) [No. 1-384, 1-(5-{[2-chloro-3-(methylsulfanyl)-4-(trifluoromethyl)benzoyl]imino}-4-methyl-4,5-dihydro-1H-tetrazol-1-yl)ethyl ethyl carbonate]	≥ 80	≥ 80	≥ 80	≥ 80	
CCOC(=O)OC(C)n1nnn(C)c1=NC(=O)c1ccc(C)c(S(C)(=O)=O)c1Cl (stereo not shown) [No. 1-390, 1-(5-{[2-chloro-4-methyl-3-(methylsulfonyl)benzoyl]imino}-4-methyl-4,5-dihydro-1H-tetrazol-1-yl)ethyl ethyl carbonate]	≥ 80	≥ 80	≥ 80	≥ 80	100
COC(=O)OC(C)n1nnn(C)c1=NC(=O)c1ccc(C(F)(F)F)c(SC)c1Cl (stereo not shown) [No. 3-384, 1-(5-{[2-chloro-3-(methylsulfanyl)-4-(trifluoromethyl)benzoyl]imino}-4-methyl-4,5-dihydro-1H-tetrazol-1-yl)ethyl methyl carbonate]	≥ 80	≥ 80	≥ 80	≥ 80	
CSc1c(C(F)(F)F)ccc(C(=O)N=c2n(C)nnn2C(C)OC(=O)OC2CCCCC2)c1Cl (stereo not shown) [No. 5-384, 1-(5-{[2-chloro-3-(methylsulfanyl)-4-(trifluoromethyl)benzoyl]imino}-4-methyl-4,5-dihydro-1H-tetrazol-1-yl)ethyl cyclohexyl carbonate]	≥ 80	≥ 80	≥ 80	≥ 80	
CCOC(=O)OC(C)OC(=Nc1nnnn1C)c1ccc(C(F)(F)F)c(SC)c1Cl (stereo not shown) [No. 19-384, 1-[(ethoxycarbonyl)oxy]ethyl 2-chloro-3-(methylsulfanyl)-N-(1-methyl-1H-tetrazol-5-yl)-4-(trifluoromethyl)benzenecarboximidate]	≥ 80	≥ 80	≥ 80	≥ 80	
CCOC(=O)OC(C)OC(=Nc1nnnn1C)c1ccc(C)c(S(C)(=O)=O)c1Cl (stereo not shown) [No. 19-390, 1-[(ethoxycarbonyl)oxy]ethyl 2-chloro-4-methyl-3-(methylsulfonyl)-N-(1-methyl-1H-tetrazol-5-yl)benzenecarboximidate]					100
COC(=O)OC(C)OC(=Nc1nnnn1C)c1ccc(C(F)(F)F)c(SC)c1Cl (stereo not shown) [No. 21-384, 1-[(Methoxycarbonyl)oxy]ethyl 2-chloro-3-(methylsulfanyl)-N-(1-methyl-1H-tetrazol-5-yl)-4-(trifluoromethyl)benzenecarboximidate]	≥ 80	≥ 80	≥ 80	≥ 80	100
CSc1c(C(F)(F)F)ccc(C(=Nc2nnnn2C)OC(C)OC(=O)OC2CCCCC2)c1Cl (stereo not shown) [No. 23-384, 1-{[(cyclohexyloxy)carbonyl]oxy}ethyl 2-chloro-3-(methylsulfanyl)-N-(1-methyl-1H-tetrazol-5-yl)-4-(trifluoromethyl)benzenecarboximidate]	≥ 80	≥ 80	≥ 80	≥ 80	90
CCOC(=O)OC(C)N(C(=O)c1ccc(C)c(S(C)(=O)=O)c1Cl)c1nnnn1C (stereo not shown) [No. 28-390, 1-{[2-chloro-4-methyl-3-(methylsulfonyl)benzoyl](1-methyl-1H-tetrazol-5-yl)amino}ethyl ethyl carbonate]	≥ 80	≥ 80	≥ 80	≥ 80	90
